From patent publication US10131652B2, “Pyrimidinyloxy benzene derivatives as herbicides” (E. I. DU PONT DE NEMOURS AND COMPANY, priority 2014, dated 2018)

Assays:
Type in all cases: in vivo
[1] = tested on: giant foxtail (Setaria faberii); assay: Test B pre-/postemergence plant response
How it was run: (§1)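 Visual injury rating, 0 (no effect) to 100 (complete control), vs untreated controls after ~10 d greenhouse. Pre: directed soil spray after planting in loam/sand. Post: plants 2–10 cm, 1–2 leaf stage. Compound in non-phytotoxic solvent plus surfactant.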

[2] = tested on: pigweed (Amaranthus retroflexus); assay: Test B pre-/postemergence plant response
How it was run: as §1

[3] = tested on: kochia (Kochia scoparia); assay: Test B pre-/postemergence plant response
How it was run: as §1

[4] = tested on: corn (Zea mays); assay: Test B pre-/postemergence plant response
How it was run: as §1

[5] = tested on: Italian ryegrass (Lolium multiflorum); assay: Test B pre-/postemergence plant response
How it was run: as §1

[6] = tested on: wheat (Triticum aestivum); assay: Test B pre-/postemergence plant response
How it was run: as §1

[7] = tested on: barnyardgrass (Echinochloa crus-galli); assay: Test B pre-/postemergence plant response
How it was run: as §1

[8] = tested on: ragweed (common ragweed, Ambrosia elatior); assay: Test B pre-/postemergence plant response
How it was run: as §1

[9] = tested on: small-flower umbrella sedge (Cyperus difformis); assay: Test C flooded paddy test plant response; details: Flood, 250 g ai/ha; scale of 0 to 100 where 0 is no effect and 100 is complete control; 13 to 15 days
How it was run: (§2)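 Greenhouse paddy assay, 13–15 days. Treatment into 3 cm floodwater over 2-leaf plants; visual 0–100 rating against controls.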

[10] = tested on: rice (Oryza sativa); assay: Test C flooded paddy test plant response; details: Flood, 250 g ai/ha; scale of 0 to 100 where 0 is no effect and 100 is complete control; 13 to 15 days
How it was run: as §2

[11] = tested on: ducksalad (Heteranthera limosa); assay: Test C flooded paddy test plant response; details: Flood, 250 g ai/ha; scale of 0 to 100 where 0 is no effect and 100 is complete control; 13 to 15 days
How it was run: as §2

[12] = tested on: barnyardgrass (Echinochloa crus-galli); assay: Test C flooded paddy test plant response; details: Flood, 250 g ai/ha; scale of 0 to 100 where 0 is no effect and 100 is complete control; 13 to 15 days
How it was run: as §2

[13] = tested on: galium (catchweed bedstraw, Galium aparine); assay: Test B postemergence plant response
How it was run: (§3)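 Plants grown in pots of loam soil–sand blend were sprayed postemergence with formulated test chemicals at 2 to 10 cm height, one- to two-leaf stage. After about 10 days in a greenhouse, injury was visually rated against untreated controls on a 0 to 100 scale (0 no effect, 100 complete control).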

[14] = tested on: blackgrass (Alopecurus myosuroides); assay: Test B postemergence plant response
How it was run: as §3

[15] = 31 g ai/ha, Postemergence, 0 to 100 scale, 0 no effect, 100 complete control
[16] = 125 g ai/ha, postemergence, 0 to 100 scale, 0 no effect, 100 complete control
[17] = Preemergence, 31 g ai/ha, 0 to 100 scale (0 no effect, 100 complete control)
[18] = Preemergence, 125 g ai/ha, 0 to 100 scale where 0 is no effect and 100 is complete control
[19] = Postemergence, 500 g ai/ha, 0 to 100 scale (0 no effect, 100 complete control)
[20] = Preemergence, 125 g ai/ha, 0 to 100 scale (0 no effect, 100 complete control)
[21] = Preemergence, 500 g ai/ha, 0 to 100 scale where 0 is no effect and 100 is complete control
[22] = 31 g ai/ha, Preemergence, 0 to 100 scale where 0 is no effect and 100 is complete control
[23] = Postemergence, 31 g ai/ha, 0 to 100 scale (0 no effect, 100 complete control)

Cc1nnc(-c2ccccc2Oc2ncc(Cl)cn2)o1 [Compound 106]
Plant response rating, Foxtail, Giant [1, 15]: 0
Plant response rating, Foxtail, Giant [1, 16]: 0
Foxtail, Giant plant response rating [1, 17]: 0
Plant response rating, Foxtail, Giant [1, 18]: 0
Plant response rating, Pigweed [2, 15]: 0
Plant response rating, Pigweed [2, 16]: 0
Pigweed plant response rating [2, 17]: 0
Plant response rating, Pigweed [2, 18]: 0
Plant response rating, Kochia [3, 15]: 0
Plant response rating, Kochia [3, 16]: 0
Kochia plant response rating [3, 17]: 0
Plant response rating, Kochia [3, 18]: 0
Plant response rating, Corn [4, 15]: 0
Plant response rating, Corn [4, 16]: 0
Plant response rating, Ryegrass, Italian [5, 15]: 0
Plant response rating, Ryegrass, Italian [5, 16]: 0
Ryegrass, Italian plant response rating [5, 17]: 0
Plant response rating, Ryegrass, Italian [5, 18]: 0
Plant response rating, Wheat [6, 15]: 0
Plant response rating, Wheat [6, 16]: 0
Plant response rating, Barnyardgrass [7, 15]: 0
Plant response rating, Barnyardgrass [7, 16]: 0
Barnyardgrass plant response rating [7, 17]: 0
Plant response rating, Barnyardgrass [7, 18]: 0
Plant response rating, Ragweed [8, 15]: 0
Plant response rating, Ragweed [8, 16]: 0
Ragweed plant response rating [8, 17]: 0
Plant response rating, Ragweed [8, 18]: 0
Sedge, Umbrella plant response rating [9]: 0
Rice plant response rating [10]: 0
Ducksalad plant response rating [11]: 0
Barnyardgrass plant response rating [12]: 0
Plant response rating, Galium [13, 15]: 0
Plant response rating, Galium [13, 16]: 0
Plant response rating, Blackgrass [14, 15]: 0
Plant response rating, Blackgrass [14, 16]: 0

FC(F)(F)Cn1cnc(-c2ccccc2Oc2ncc(Cl)cn2)c1 [Compound 161]
Plant response rating, Foxtail, Giant [1, 16]: 0
Plant response rating, Foxtail, Giant [1, 19]: 0
Foxtail, Giant plant response rating [1, 20]: 0
Plant response rating, Foxtail, Giant [1, 21]: 0
Plant response rating, Pigweed [2, 16]: 0
Plant response rating, Pigweed [2, 19]: 0
Pigweed plant response rating [2, 20]: 0
Plant response rating, Pigweed [2, 21]: 0
Plant response rating, Kochia [3, 16]: 0
Plant response rating, Kochia [3, 19]: 0
Kochia plant response rating [3, 20]: 0
Plant response rating, Kochia [3, 21]: 0
Plant response rating, Corn [4, 16]: 0
Plant response rating, Corn [4, 19]: 0
Plant response rating, Ryegrass, Italian [5, 16]: 0
Plant response rating, Ryegrass, Italian [5, 19]: 0
Ryegrass, Italian plant response rating [5, 20]: 0
Plant response rating, Ryegrass, Italian [5, 21]: 0
Plant response rating, Wheat [6, 16]: 0
Plant response rating, Wheat [6, 19]: 0
Plant response rating, Barnyardgrass [7, 16]: 0
Plant response rating, Barnyardgrass [7, 19]: 0
Barnyardgrass plant response rating [7, 20]: 0
Plant response rating, Barnyardgrass [7, 21]: 0
Plant response rating, Ragweed [8, 16]: 0
Plant response rating, Ragweed [8, 19]: 0
Ragweed plant response rating [8, 20]: 0
Plant response rating, Ragweed [8, 21]: 0
Sedge, Umbrella plant response rating [9]: 0
Rice plant response rating [10]: 0
Ducksalad plant response rating [11]: 0
Barnyardgrass plant response rating [12]: 0
Plant response rating, Galium [13, 16]: 0
Plant response rating, Galium [13, 19]: 0
Plant response rating, Blackgrass [14, 16]: 0
Plant response rating, Blackgrass [14, 19]: 0

Fc1cc(F)c(-c2cc(C(F)F)no2)c(Oc2ncc(Cl)cn2)c1 [Compound 107]
Plant response rating, Foxtail, Giant [1, 15]: 0
Plant response rating, Foxtail, Giant [1, 16]: 0
Foxtail, Giant plant response rating [1, 17]: 0
Plant response rating, Foxtail, Giant [1, 18]: 0
Plant response rating, Pigweed [2, 15]: 0
Plant response rating, Pigweed [2, 16]: 0
Pigweed plant response rating [2, 17]: 0
Plant response rating, Pigweed [2, 18]: 0
Plant response rating, Kochia [3, 15]: 0
Plant response rating, Kochia [3, 16]: 0
Kochia plant response rating [3, 17]: 0
Plant response rating, Kochia [3, 18]: 0
Plant response rating, Corn [4, 15]: 0
Plant response rating, Corn [4, 16]: 0
Plant response rating, Ryegrass, Italian [5, 15]: 0
Plant response rating, Ryegrass, Italian [5, 16]: 0
Ryegrass, Italian plant response rating [5, 17]: 0
Plant response rating, Ryegrass, Italian [5, 18]: 0
Plant response rating, Wheat [6, 15]: 0
Plant response rating, Wheat [6, 16]: 0
Plant response rating, Barnyardgrass [7, 15]: 0
Plant response rating, Barnyardgrass [7, 16]: 0
Barnyardgrass plant response rating [7, 17]: 0
Plant response rating, Barnyardgrass [7, 18]: 0
Plant response rating, Ragweed [8, 15]: 0
Plant response rating, Ragweed [8, 16]: 0
Ragweed plant response rating [8, 17]: 0
Plant response rating, Ragweed [8, 18]: 0
Sedge, Umbrella plant response rating [9]: 0
Rice plant response rating [10]: 0
Ducksalad plant response rating [11]: 0
Barnyardgrass plant response rating [12]: 0
Plant response rating, Galium [13, 15]: 0
Plant response rating, Galium [13, 16]: 0
Plant response rating, Blackgrass [14, 15]: 0
Plant response rating, Blackgrass [14, 16]: 0

CC(=O)c1cc(-c2ccccc2Oc2ncc(Cl)cn2)on1 [Compound 218]
Plant response rating, Foxtail, Giant [1, 22]: 0
Plant response rating, Foxtail, Giant [1, 16]: 0
Plant response rating, Foxtail, Giant [1, 23]: 0
Foxtail, Giant plant response rating [1, 20]: 60
Plant response rating, Pigweed [2, 22]: 0
Plant response rating, Pigweed [2, 16]: 40
Plant response rating, Pigweed [2, 23]: 0
Pigweed plant response rating [2, 20]: 90
Plant response rating, Kochia [3, 22]: 0
Plant response rating, Kochia [3, 16]: 0
Plant response rating, Kochia [3, 23]: 0
Kochia plant response rating [3, 20]: 0
Plant response rating, Corn [4, 16]: 0
Plant response rating, Corn [4, 23]: 0
Plant response rating, Ryegrass, Italian [5, 22]: 0
Plant response rating, Ryegrass, Italian [5, 16]: 0
Plant response rating, Ryegrass, Italian [5, 23]: 0
Ryegrass, Italian plant response rating [5, 20]: 0
Plant response rating, Wheat [6, 16]: 0
Plant response rating, Wheat [6, 23]: 0
Plant response rating, Barnyardgrass [7, 22]: 0
Plant response rating, Barnyardgrass [7, 16]: 0
Plant response rating, Barnyardgrass [7, 23]: 0
Barnyardgrass plant response rating [7, 20]: 50
Plant response rating, Ragweed [8, 22]: 0
Plant response rating, Ragweed [8, 16]: 0
Plant response rating, Ragweed [8, 23]: 0
Ragweed plant response rating [8, 20]: 0
Sedge, Umbrella plant response rating [9]: 0
Rice plant response rating [10]: 0
Ducksalad plant response rating [11]: 0
Barnyardgrass plant response rating [12]: 0
Plant response rating, Galium [13, 16]: 10
Plant response rating, Galium [13, 23]: 0
Plant response rating, Blackgrass [14, 16]: 0
Plant response rating, Blackgrass [14, 23]: 0
